The values that follow come from US20250340552A1, “COMPOUNDS, COMPOSITIONS AND METHODS OF TREATING DISORDERS” (HOTSPOT THERAPEUTICS, INC., priority 2022, published 2025).

SMILES strings stand for the structures. Like-named read-outs stand apart in the source and are kept apart here. Some results are limits rather than exact numbers.

In this test the target is T1, Cbl-B (Homo sapiens, UniProt Q13191).
T1 construct: MSD-Based Assay for Degradation of Cbl-B in THP-1 Cells; endogenous in cells; host or cells: THP-1 (title) / Jurkat (protocol text)
The test can be described thus: MSD-based assay for degradation of Cbl-B in THP-1 cells. Type of test: cell-based. Put shortly: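 Reported Dmax bins are A >70%, B 50–70%, C 30–50% and D <30%, from an electrochemiluminescence (MSD) sandwich assay of Cbl-B in cell lysates. THP-1 cells were exposed to compounds for 24 hours before lysis.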

Setting [1] is: Cbl-B degradation, Jurkat cells seeded (heading: THP-1 cells), 24 hours incubation, MSD readout.
[2] abbreviates: Cbl-B degradation, Jurkat cells seeded (heading: THP-1 cells), 24 hours incubation, MSD readout, read-out: Dmax.

T1 sequence (Q13191 whole entry): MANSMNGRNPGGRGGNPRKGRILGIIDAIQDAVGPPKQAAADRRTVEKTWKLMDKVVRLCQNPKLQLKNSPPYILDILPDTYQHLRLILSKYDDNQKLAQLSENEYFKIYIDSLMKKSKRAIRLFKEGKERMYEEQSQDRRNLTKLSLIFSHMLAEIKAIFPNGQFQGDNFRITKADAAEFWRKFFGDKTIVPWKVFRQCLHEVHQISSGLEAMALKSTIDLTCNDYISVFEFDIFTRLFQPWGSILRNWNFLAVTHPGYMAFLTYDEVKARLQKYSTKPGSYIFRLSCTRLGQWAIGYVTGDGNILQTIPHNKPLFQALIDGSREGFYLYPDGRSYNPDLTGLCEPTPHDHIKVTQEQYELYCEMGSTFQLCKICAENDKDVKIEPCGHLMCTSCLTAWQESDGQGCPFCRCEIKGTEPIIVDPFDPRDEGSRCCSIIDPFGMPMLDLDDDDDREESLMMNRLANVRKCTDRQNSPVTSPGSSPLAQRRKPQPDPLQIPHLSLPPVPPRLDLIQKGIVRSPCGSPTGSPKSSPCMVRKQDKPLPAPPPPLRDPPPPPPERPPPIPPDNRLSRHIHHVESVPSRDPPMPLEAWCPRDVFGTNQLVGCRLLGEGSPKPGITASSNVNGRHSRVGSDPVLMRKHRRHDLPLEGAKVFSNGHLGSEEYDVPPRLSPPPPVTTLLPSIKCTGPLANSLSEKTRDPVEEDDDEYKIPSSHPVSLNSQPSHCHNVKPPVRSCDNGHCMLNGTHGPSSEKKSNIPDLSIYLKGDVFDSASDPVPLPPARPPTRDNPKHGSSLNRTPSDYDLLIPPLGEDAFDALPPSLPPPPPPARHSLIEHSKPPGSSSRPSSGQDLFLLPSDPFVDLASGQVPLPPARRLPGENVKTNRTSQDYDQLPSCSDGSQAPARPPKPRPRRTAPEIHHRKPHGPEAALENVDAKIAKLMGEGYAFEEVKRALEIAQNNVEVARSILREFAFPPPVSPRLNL

`Cn1cnnc1[C@@H](c1cccc(-n2cc3c(C(F)(F)F)cc(CN4CCC(OCc5cccc(C(=O)N6CCN(c7ccc8c(c7)CN([C@H]7CCC(=O)NC7=O)C8=O)CC6)c5)CC4)cn3c2=O)c1)C1CCC1` (single isomer, unassigned) [Compound 154]: the half-maximal degradation concentration (DC50) (in general, the concentration at which degradation of the target reaches its halfway point) under setting [1] was in the range of 300 to 1000 nM. Moreover, the Dmax (in general, the greatest extent of degradation seen) under setting [2] lay in the range of 30 to 50%. `Cn1cnnc1[C@@H](c1cccc(-n2cc3c(C(F)(F)F)cc(CN4CCC(OCc5ccc(N6CCN(c7ccc8c(c7)CN([C@@H]7CCC(=O)NC7=O)C8=O)CC6)cc5)CC4)cn3c2=O)c1)C1CCC1` (single isomer, unassigned) [Compound 155] showed a DC50 under setting [1] of over 10000 nM. Further, the Dmax under setting [2] was under 30%.

In the case of `Cn1cnnc1[C@@H](c1cccc(-n2cc3c(C(F)(F)F)cc(CN4CCC(OCc5ccc(N6CCN(c7ccc8c(c7)CN([C@H]7CCC(=O)NC7=O)C8=O)CC6)cc5)CC4)cn3c2=O)c1)C1CCC1` (single isomer, unassigned) [Compound 156], the half-maximal degradation concentration (DC50) under setting [1] was under 30 nM. Besides, under setting [2], the Dmax was 50 to 70%. As to `Cn1cnnc1[C@@H](c1cccc(-n2cc3c(C(F)(F)F)cc(CN4CCC(OCc5ccc(C(=O)N6CCN(c7ccc8c(c7)CN([C@@H]7CCC(=O)NC7=O)C8=O)CC6)cc5)CC4)cn3c2=O)c1)C1CCC1` (single isomer, unassigned) [Compound 157], the DC50 under setting [1] was over 10000 nM. In addition, the Dmax under setting [2] is under 30%.

`Cn1cnnc1[C@@H](c1cccc(-n2cc3c(C(F)(F)F)cc(CN4CCC(OCc5ccc(C(=O)N6CCN(c7ccc8c(c7)CN([C@H]7CCC(=O)NC7=O)C8=O)CC6)cc5)CC4)cn3c2=O)c1)C1CCC1` (single isomer, unassigned) [Compound 158]: under setting [1], the DC50 is under 30 nM. For the same compound, the Dmax under setting [2] was over 70%. In the case of `Cn1cnnc1[C@@H](c1cccc(-n2cc3c(C(F)(F)F)cc(CN4CCC(C5CCN(C(=O)c6ccc(N7CCN(c8ccc9c(c8)CN([C@@H]8CCC(=O)NC8=O)C9=O)CC7)cc6)CC5)CC4)cn3c2=O)c1)C1CCC1` (single isomer, unassigned) [Compound 161], the DC50 under setting [1] was 300 to 1000 nM. The Dmax under setting [2] was under 30%. For `Cn1cnnc1[C@@H](c1cccc(-n2cc3c(C(F)(F)F)cc(CN4CCC(C5CCN(C(=O)c6ccc(N7CCN(c8ccc9c(c8)CN([C@H]8CCC(=O)NC8=O)C9=O)CC7)cc6)CC5)CC4)cn3c2=O)c1)C1CCC1` (single isomer, unassigned) [Compound 162], in that order: under 30 nM and over 70%. The matching figures for `Cn1cnnc1[C@@H](c1cccc(-n2cc3c(C(F)(F)F)cc(CN4CCC[C@@H](OC5CCN(C(=O)c6ccc(N7CCN(c8ccc9c(c8)CN([C@@H]8CCC(=O)NC8=O)C9=O)CC7)cc6)CC5)C4)cn3c2=O)c1)C1CCC1` (single isomer, unassigned) [Compound 171]: under 30 nM and 50 to 70%. As to `Cn1cnnc1[C@@H](c1cccc(-n2cc3c(C(F)(F)F)cc(CN4CCC[C@@H](OC5CCN(C(=O)c6ccc(N7CCN(c8ccc9c(c8)CN([C@H]8CCC(=O)NC8=O)C9=O)CC7)cc6)CC5)C4)cn3c2=O)c1)C1CCC1` (single isomer, unassigned) [Compound 172], the 50% degradation concentration (DC50) under setting [1] is under 30 nM. Under setting [2], the greatest degradation seen (Dmax) was over 70%.

Consider `Cn1cnnc1[C@@H](c1cccc(-n2cc3c(C(F)(F)F)cc(CN4CCC(OCCOCc5ccc(CC6CCN(c7ccc8c(c7)CN([C@@H]7CCC(=O)NC7=O)C8=O)CC6)cc5)CC4)cn3c2=O)c1)C1CCC1` (single isomer, unassigned) [Compound 173], for which the DC50 under setting [1] lay in the range of 1000 to 10000 nM. Under “THP-1”, this compound yielded a Dmax of 30 to 50%. Under setting [1], `Cn1cnnc1[C@@H](c1cccc(-n2cc3c(C(F)(F)F)cc(CN4CCC(OCCOCc5ccc(CC6CCN(c7ccc8c(c7)CN([C@H]7CCC(=O)NC7=O)C8=O)CC6)cc5)CC4)cn3c2=O)c1)C1CCC1` (single isomer, unassigned) [Compound 174] gave a DC50 of under 30 nM. Further, the Dmax under setting [2] was over 70%.

Regarding `Cn1cnnc1[C@@H](c1cccc(-n2cc3c(C(F)(F)F)cc(CN4CCC(CC(=O)N5CCC(C6CCN(c7ccc8c(c7)CN([C@@H]7CCC(=O)NC7=O)C8=O)CC6)CC5)CC4)cn3c2=O)c1)C1CCC1` (single isomer, unassigned) [Compound 177], the half-maximal degradation concentration (DC50) under setting [1] lay within 300 to 1000 nM. Besides, the Dmax under setting [2] was 30 to 50%. For `Cn1cnnc1[C@@H](c1cccc(-n2cc3c(C(F)(F)F)cc(CN4CCC(CC(=O)N5CCC(C6CCN(c7ccc8c(c7)CN([C@H]7CCC(=O)NC7=O)C8=O)CC6)CC5)CC4)cn3c2=O)c1)C1CCC1` (single isomer, unassigned) [Compound 178], under setting [1], the DC50 is under 30 nM. Further, the Dmax under setting [2] is over 70%.

`CN(CCC1CCN(Cc2cc(C(F)(F)F)c3cn(-c4cccc([C@H](c5nncn5C)C5CCC5)c4)c(=O)n3c2)CC1)C(=O)c1ccc(N2CCN(c3ccc4c(c3)CN([C@@H]3CCC(=O)NC3=O)C4=O)CC2)cc1` (single isomer, unassigned) [Compound 185] gave a DC50 under setting [1] of 30 to 300 nM. For the same compound, under setting [2], the Dmax was 50 to 70%. `CN(CCC1CCN(Cc2cc(C(F)(F)F)c3cn(-c4cccc([C@H](c5nncn5C)C5CCC5)c4)c(=O)n3c2)CC1)C(=O)c1ccc(N2CCN(c3ccc4c(c3)CN([C@H]3CCC(=O)NC3=O)C4=O)CC2)cc1` (single isomer, unassigned) [Compound 186] showed a DC50 under setting [1] of under 30 nM. Besides, the greatest degradation seen (Dmax) under setting [2] was over 70%. Turning to `Cn1cnnc1[C@@H](c1cccc(-n2cc3c(C(F)(F)F)cc(CN4CCC[C@H](OCc5ccc(CC6CCN(c7ccc8c(c7)CN([C@@H]7CCC(=O)NC7=O)C8=O)CC6)cc5)C4)cn3c2=O)c1)C1CCC1` (single isomer, unassigned) [Compound 187], the DC50 under setting [1] was over 10000 nM. Under setting [1], `Cn1cnnc1[C@@H](c1cccc(-n2cc3c(C(F)(F)F)cc(CN4CCC[C@H](OCc5ccc(CC6CCN(c7ccc8c(c7)CN([C@H]7CCC(=O)NC7=O)C8=O)CC6)cc5)C4)cn3c2=O)c1)C1CCC1` (single isomer, unassigned) [Compound 188] showed a DC50 of 300 to 1000 nM. In turn, `Cn1cnnc1[C@@H](c1cccc(N2Cc3c(cc(CN4CCC[C@H](OCc5ccc(CC6CCN(c7ccc8c(c7)CN([C@@H]7CCC(=O)NC7=O)C8=O)CC6)cc5)C4)cc3C(F)(F)F)C2=O)c1)C1CCC1` (single isomer, unassigned) [Compound 189] returned a DC50 under setting [1] of over 10000 nM. For the same compound, the Dmax under setting [2] was under 30%. As for `Cn1cnnc1[C@@H](c1cccc(-n2cc3c(C(F)(F)F)cc(CN4CCC[C@@H](OCc5ccc(CC6CCN(c7ccc8c(c7)CN([C@H]7CCC(=O)NC7=O)C8=O)CC6)cc5)C4)cn3c2=O)c1)C1CCC1` (single isomer, unassigned) [Compound 192], under setting [1], the DC50 was in the range of 1000 to 10000 nM. In the case of `Cn1cnnc1[C@@H](c1cccc(N2Cc3c(cc(CN4CCC[C@@H](OCc5ccc(CC6CCN(c7ccc8c(c7)CN([C@@H]7CCC(=O)NC7=O)C8=O)CC6)cc5)C4)cc3C(F)(F)F)C2=O)c1)C1CCC1` (single isomer, unassigned) [Compound 193], the DC50 under setting [1] is over 10000 nM. Besides, the Dmax under setting [2] is under 30%. For `Cn1cnnc1[C@@H](c1cccc(N2Cc3c(cc(CN4CCC[C@@H](OCc5ccc(CC6CCN(c7ccc8c(c7)CN([C@H]7CCC(=O)NC7=O)C8=O)CC6)cc5)C4)cc3C(F)(F)F)C2=O)c1)C1CCC1` (single isomer, unassigned) [Compound 194], in that order: 30 to 300 nM and 30 to 50%.

For the compound `Cn1cnnc1[C@@H](c1cccc(-n2cc3c(C(F)(F)F)cc(CN4CCC[C@H](OC5CCN(C(=O)c6ccc(N7CCN(c8ccc9c(c8)CN([C@@H]8CCC(=O)NC8=O)C9=O)CC7)cc6)CC5)C4)cn3c2=O)c1)C1CCC1` (single isomer, unassigned) [Compound 195], the DC50 under setting [1] fell in the range of 30 to 300 nM. Moreover, the Dmax under setting [2] was 50 to 70%. For `Cn1cnnc1[C@@H](c1cccc(-n2cc3c(C(F)(F)F)cc(CN4CCC[C@H](OC5CCN(C(=O)c6ccc(N7CCN(c8ccc9c(c8)CN([C@H]8CCC(=O)NC8=O)C9=O)CC7)cc6)CC5)C4)cn3c2=O)c1)C1CCC1` (single isomer, unassigned) [Compound 196], in that order: under 30 nM and over 70%. Take `CN(CCN(C)C(=O)c1cc(C(F)(F)F)c2cn(-c3cccc([C@H](c4nncn4C)C4CCC4)c3)c(=O)n2c1)C(=O)c1ccc(C2CCN(c3ccc4c(c3)CN([C@@H]3CCC(=O)NC3=O)C4=O)CC2)cc1` (single isomer, unassigned) [Compound 197]: the DC50 under setting [1] is over 10000 nM. Also, the Dmax under setting [2] was under 30%. For `CN(CCN(C)C(=O)c1cc(C(F)(F)F)c2cn(-c3cccc([C@H](c4nncn4C)C4CCC4)c3)c(=O)n2c1)C(=O)c1ccc(C2CCN(c3ccc4c(c3)CN([C@H]3CCC(=O)NC3=O)C4=O)CC2)cc1` (single isomer, unassigned) [Compound 198], in that order: over 10000 nM and under 30%.

Turning to `CN(CC1CCN(Cc2cc(C(F)(F)F)c3cn(-c4cccc([C@H](c5nncn5C)C5CCC5)c4)c(=O)n3c2)CC1)C(=O)c1ccc(C2CCN(c3ccc4c(c3)CN([C@@H]3CCC(=O)NC3=O)C4=O)CC2)cc1` (single isomer, unassigned) [Compound 199], under setting [1], the DC50 lay in the range of 30 to 300 nM. For the same compound, the Dmax under setting [2] was in the range of 30 to 50%. With `CN(CC1CCN(Cc2cc(C(F)(F)F)c3cn(-c4cccc([C@H](c5nncn5C)C5CCC5)c4)c(=O)n3c2)CC1)C(=O)c1ccc(C2CCN(c3ccc4c(c3)CN([C@H]3CCC(=O)NC3=O)C4=O)CC2)cc1` (single isomer, unassigned) [Compound 200], the DC50 under setting [1] is under 30 nM. Besides, under setting [2], the greatest degradation seen (Dmax) was over 70%. The matching figures for `Cn1cnnc1[C@@H](c1cccc(-n2cc3c(C(F)(F)F)cc(CN4CCN(C(=O)Cc5ccc(C6CCN(c7ccc8c(c7)CN([C@@H]7CCC(=O)NC7=O)C8=O)CC6)cc5)CC4)cn3c2=O)c1)C1CCC1` (single isomer, unassigned) [Compound 201]: 30 to 300 nM and 30 to 50%.
